Patent US20260327214A1, “1,3,4-OXADIAZOLE DERIVATIVE COMPOUNDS AS HISTONE DEACETYLASE 6 INHIBITOR, AND USES THEREOF” (CHONG KUN DANG PHARMACEUTICAL CORP., priority 2022, published 2026)

Assays:
human recombinant HDAC6 = molecular target: T1, human recombinant HDAC6 (Homo sapiens, UniProt Q9UBN7); test: HDAC6 enzyme activity inhibition test (HDAC Fluorometric Drug Discovery Kit); assay type: biochemical; conditions: for HDAC6 selectivity (fold): HDAC6 over HDAC1; for IC50: human recombinant HDAC6, same protocol as HDAC1
T1 construct: purchased Calbiochem 382180
T1 sequence (Q9UBN7 1-1215): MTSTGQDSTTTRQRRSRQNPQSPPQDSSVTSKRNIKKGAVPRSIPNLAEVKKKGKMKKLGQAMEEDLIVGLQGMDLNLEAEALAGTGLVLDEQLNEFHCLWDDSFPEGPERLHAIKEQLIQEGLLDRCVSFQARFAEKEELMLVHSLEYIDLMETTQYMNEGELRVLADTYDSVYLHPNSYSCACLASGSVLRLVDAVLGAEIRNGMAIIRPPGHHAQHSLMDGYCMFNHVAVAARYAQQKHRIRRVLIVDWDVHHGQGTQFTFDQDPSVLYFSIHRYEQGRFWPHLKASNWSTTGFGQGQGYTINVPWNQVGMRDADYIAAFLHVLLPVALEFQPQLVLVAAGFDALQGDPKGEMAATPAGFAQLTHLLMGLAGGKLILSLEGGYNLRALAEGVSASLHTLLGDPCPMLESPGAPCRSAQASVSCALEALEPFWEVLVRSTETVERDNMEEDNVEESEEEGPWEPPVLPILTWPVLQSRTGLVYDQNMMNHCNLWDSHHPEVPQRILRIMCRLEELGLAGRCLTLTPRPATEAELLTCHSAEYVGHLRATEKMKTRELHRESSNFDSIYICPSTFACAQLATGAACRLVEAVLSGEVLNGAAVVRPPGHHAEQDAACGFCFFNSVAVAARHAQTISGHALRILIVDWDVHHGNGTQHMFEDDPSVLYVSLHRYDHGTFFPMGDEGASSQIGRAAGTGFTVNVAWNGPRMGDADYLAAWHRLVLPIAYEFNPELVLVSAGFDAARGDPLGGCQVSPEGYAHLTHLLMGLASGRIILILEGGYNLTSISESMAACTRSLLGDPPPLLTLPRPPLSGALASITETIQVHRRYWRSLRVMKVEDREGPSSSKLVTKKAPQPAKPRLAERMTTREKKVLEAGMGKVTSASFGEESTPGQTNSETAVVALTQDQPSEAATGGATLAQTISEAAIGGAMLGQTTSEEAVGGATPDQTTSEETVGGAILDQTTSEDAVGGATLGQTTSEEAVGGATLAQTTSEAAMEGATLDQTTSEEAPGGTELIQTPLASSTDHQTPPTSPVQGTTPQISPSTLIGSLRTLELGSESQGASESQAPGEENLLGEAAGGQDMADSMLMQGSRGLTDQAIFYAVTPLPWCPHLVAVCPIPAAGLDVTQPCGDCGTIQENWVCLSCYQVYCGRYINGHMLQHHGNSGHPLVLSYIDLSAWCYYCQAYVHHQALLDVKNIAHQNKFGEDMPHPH
Experimental: (§1) The following experiment was conducted to confirm the HDAC6 selectivity of the compound represented by Chemical Formula I of the present invention through the HDAC1 and HDAC6 enzyme activity inhibition test.
(§2) HDAC enzyme activity was measured using HDAC Fluorometric Drug Discovery Kit (BML-AK511, 516) manufactured by Enzo Life Science. For the HDAC1 enzyme activity test, human recombinant HDAC1 (BML-SE456) was used as an enzyme source and Fluor de Lys-®-″SIRT1 (BNL-KI177) was used as a substrate. The 5-fold diluted compound was dispensed in a 96-well plate, 0.3 μg of enzyme and 10 μM substrate were added to each well and reacted at 30° C. for 60 minutes, and Fluor de Lys® Developer II(BML-KI176) was added and reacted for 30 minutes to complete the reaction. Then, the fluorescence value (Ex 360, Em 460) was measured using a multiplate reader (Flexstation 3, Molecular Device). The HDAC6 enzyme was tested using the same protocol as the HDAC1 enzyme activity test method employing human recombinant HDAC6 (382180) from Calbiochem. For the final result, each […] value was calculated using the GraphPad Prism 4.0 program.

human recombinant HDAC1 = molecular target: T2, human recombinant HDAC1 (Homo sapiens, UniProt Q13547); test: HDAC1 enzyme activity inhibition test (HDAC Fluorometric Drug Discovery Kit); assay type: biochemical; conditions: 30° C., 60 minutes, 10 μM substrate
T2 construct: purchased Enzo Life Science BML-SE456
T2 sequence (Q13547 whole entry): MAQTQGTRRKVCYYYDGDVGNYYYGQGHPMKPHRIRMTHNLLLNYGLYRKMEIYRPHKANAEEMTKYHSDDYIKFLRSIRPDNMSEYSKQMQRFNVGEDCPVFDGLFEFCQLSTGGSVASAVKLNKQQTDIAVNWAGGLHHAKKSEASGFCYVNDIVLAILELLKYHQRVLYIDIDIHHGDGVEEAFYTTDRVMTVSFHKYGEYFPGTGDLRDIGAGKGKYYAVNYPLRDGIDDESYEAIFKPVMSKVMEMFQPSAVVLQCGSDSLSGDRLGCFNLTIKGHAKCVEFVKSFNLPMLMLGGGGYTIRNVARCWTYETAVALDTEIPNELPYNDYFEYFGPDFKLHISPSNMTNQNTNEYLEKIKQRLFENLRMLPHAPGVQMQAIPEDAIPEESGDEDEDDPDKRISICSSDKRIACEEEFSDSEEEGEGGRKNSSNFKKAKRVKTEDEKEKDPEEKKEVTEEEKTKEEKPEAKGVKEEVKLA
Experimental: as §1, §2

HDAC6 selectivity (fold) (human recombinant HDAC6) | IC50 (human recombinant HDAC6) [nM] | IC50 (human recombinant HDAC1) [µM] | SMILES
479 | 104 | > 50 | CC(C)N1CCN(c2ccc(-c3nn(Cc4ccc(-c5nnc(C(F)F)o5)cn4)c(=O)o3)cc2)CC1 [Compound 22, 3-[[5-[5-(difluoromethyl)-1,3,4-oxadiazol-2-yl]-2-pyridyl]methyl]-5-[4-(4-isopropylpiperazin-1-yl)phenyl]-1,3,4-oxadiazol-2-one]
942 | 53.1 | > 50 | O=c1oc(-c2ccc(N3CCNCC3)cc2F)nn1Cc1ccc(-c2nnc(C(F)F)o2)cn1 [Compound 23, 3-[[5-[5-(difluoromethyl)-1,3,4-oxadiazol-2-yl]-2-pyridyl]methyl]-5-(2-fluoro-4-piperazin-1-yl-phenyl)-1,3,4-oxadiazol-2-one]
487 | 103 | > 50 | CN1CCN(c2ccc(-c3nn(Cc4ccc(-c5nnc(C(F)F)o5)cn4)c(=O)o3)c(F)c2)CC1 [Compound 24, 3-[[5-[5-(difluoromethyl)-1,3,4-oxadiazol-2-yl]-2-pyridyl]methyl]-5-[2-fluoro-4-(4-methylpiperazin-1-yl)phenyl]-1,3,4-oxadiazol-2-one]
642 | 77.9 | > 50 | CC(C)N1CCN(c2ccc(-c3nn(Cc4ccc(-c5nnc(C(F)F)o5)cn4)c(=O)o3)c(F)c2)CC1 [Compound 25, 3-[[5-[5-(difluoromethyl)-1,3,4-oxadiazol-2-yl]-2-pyridyl]methyl]-5-[2-fluoro-4-(4-isopropylpiperazin-1-yl)phenyl]-1,3,4-oxadiazol-2-one]
503 | 99.4 | > 50 | O=c1oc(-c2cccc(C3CCN(C4COC4)CC3)c2F)nn1Cc1ccc(-c2nnc(C(F)F)o2)cn1 [Compound 26, 3-[[5-[5-(difluoromethyl)-1,3,4-oxadiazol-2-yl]-2-pyridyl]methyl]-5-[2-fluoro-3-[1-(oxetan-3-yl)-4-piperidyl]phenyl]-1,3,4-oxadiazol-2-one]
420 | 119 | > 50 | CN1CC(N2CCC(c3cccc(-c4nn(Cc5ccc(-c6nnc(C(F)F)o6)cn5)c(=O)o4)c3F)CC2)C1 [Compound 27, 3-[[5-[5-(difluoromethyl)-1,3,4-oxadiazol-2-yl]-2-pyridyl]methyl]-5-[2-fluoro-3-[1-(1-methylazetidin-3-yl)-4-piperidyl]phenyl]-1,3,4-oxadiazol-2-one]
626 | 79.9 | > 50 | CC(=O)N1CC(N2CCC(c3cccc(-c4nn(Cc5ccc(-c6nnc(C(F)F)o6)cn5)c(=O)o4)c3F)CC2)C1 [Compound 28, 5-[3-[1-(1-acetylazetidine-3-yl)-4-piperidyl]-2-fluoro-phenyl]-3-[[5-[5-(difluoromethyl)-1,3,4-oxadiazol-2-yl]-2-pyridyl]methyl]-1,3,4-oxadiazol-2-one]
745 | 67.1 | > 50 | CN1CCC(c2ccc(-c3nn(Cc4ccc(-c5nnc(C(F)F)o5)cn4)c(=O)o3)cc2)CC1 [Compound 29, 3-[[5-[5-(difluoromethyl)-1,3,4-oxadiazol-2-yl]-2-pyridyl]methyl]-5-[4-(1-methyl-4-piperidyl)phenyl]-1,3,4-oxadiazol-2-one]
518 | 96.5 | > 50 | CC(C)N1CCC(c2ccc(-c3nn(Cc4ccc(-c5nnc(C(F)F)o5)cn4)c(=O)o3)cc2)CC1 [Compound 30, 3-[[5-[5-(difluoromethyl)-1,3,4-oxadiazol-2-yl]-2-pyridyl]methyl]-5-[4-(1-isopropyl-4-piperidyl)phenyl]-1,3,4-oxadiazol-2-one]
643 | 77.8 | > 50 | Cn1ccc2ccc(-c3nn(Cc4ccc(-c5nnc(C(F)F)o5)cn4)c(=O)o3)cc21 [Compound 31, 3-[[5-[5-(difluoromethyl)-1,3,4-oxadiazol-2-yl]-2-pyridyl]methyl]-5-(1-methylindol-6-yl)-1,3,4-oxadiazol-2-one]
774 | 64.6 | > 50 | Cn1ccc2cc(-c3nn(Cc4ccc(-c5nnc(C(F)F)o5)cn4)c(=O)o3)cnc21 [Compound 32, 3-[[5-[5-(difluoromethyl)-1,3,4-oxadiazol-2-yl]-2-pyridyl]methyl]-5-(1-methylpyrrolo[2,3-b]pyridin-5-yl)-1,3,4-oxadiazol-2-one]
1506 | 33.2 | > 50 | O=c1oc(-c2ccc3cc[nH]c3c2)nn1Cc1ccc(-c2nnc(C(F)F)o2)cn1 [Compound 33, 3-[[5-[5-(difluoromethyl)-1,3,4-oxadiazol-2-yl]-2-pyridyl]methyl]-5-(1H-indole-6-yl)-1,3,4-oxadiazol-2-one]
1695 | 29.5 | > 50 | O=c1oc(-c2cccc3[nH]ccc23)nn1Cc1ccc(-c2nnc(C(F)F)o2)cn1 [Compound 34, 3-[[5-[5-(difluoromethyl)-1,3,4-oxadiazol-2-yl]-2-pyridyl]methyl]-5-(1H-indol-4-yl)-1,3,4-oxadiazol-2-one]
643 | 77.8 | > 50 | O=c1oc(-c2cccc3[nH]ccc23)nn1Cc1ncc(-c2nnc(C(F)F)o2)cc1F [Compound 35, 3-[[5-[5-(difluoromethyl)-1,3,4-oxadiazol-2-yl]-3-fluoro-2-pyridyl]methyl]-5-(1H-indol-4-yl)-1,3,4-oxadiazol-2-one]
640 | 78.1 | > 50 | O=c1oc(-c2cccc(N3CCNCC3)c2)nn1Cc1ccc(-c2nnc(C(F)F)o2)cn1 [Compound 36, 3-[[5-[5-(difluoromethyl)-1,3,4-oxadiazol-2-yl]-2-pyridyl]methyl]-5-(3-piperazin-1-ylphenyl)-1,3,4-oxadiazol-2-one]
512 | 97.7 | > 50 | CN1CCN(c2cccc(-c3nn(Cc4ccc(-c5nnc(C(F)F)o5)cn4)c(=O)o3)c2)CC1 [Compound 37, 3-[[5-[5-(difluoromethyl)-1,3,4-oxadiazol-2-yl]-2-pyridyl]methyl]-5-[3-(4-methylpiperazin-1-yl)phenyl]-1,3,4-oxadiazol-2-one]
988 | 50.6 | > 50 | CC(C)N1CCN(c2cccc(-c3nn(Cc4ccc(-c5nnc(C(F)F)o5)cn4)c(=O)o3)c2)CC1 [Compound 38, 3-[[5-[5-(difluoromethyl)-1,3,4-oxadiazol-2-yl]-2-pyridyl]methyl]-5-[3-(4-isopropylpiperazin-1-yl)phenyl]-1,3,4-oxadiazol-2-one]
605 | 82.7 | > 50 | O=c1oc(-c2cccc(N3CCN(C4CCC4)CC3)c2)nn1Cc1ccc(-c2nnc(C(F)F)o2)cn1 [Compound 39, 5-[3-(4-cyclobutylpiperazin-1-yl)phenyl]-3-[[5-[5-(difluoromethyl)-1,3,4-oxadiazol-2-yl]-2-pyridyl]methyl]-1,3,4-oxadiazol-2-one]
